Data on 20 compounds can be found in US11530218B2, “Spiro compounds as inhibitors of KRAS” (Incyte Corporation, priority 2020, dated 2022).

Sequence of KRAS G12C (P01116 1-188 isoform P01116-2 G12C): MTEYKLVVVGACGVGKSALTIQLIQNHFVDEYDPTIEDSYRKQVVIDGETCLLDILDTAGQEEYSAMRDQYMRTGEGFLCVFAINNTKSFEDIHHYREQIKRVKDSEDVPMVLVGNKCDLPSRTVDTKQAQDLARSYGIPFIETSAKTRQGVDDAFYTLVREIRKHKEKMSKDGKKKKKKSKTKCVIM

The first experiment has as its target KRAS G12C (Homo sapiens, UniProt P01116, G12C). Put plainly: KRAS G12C GDP-GTP exchange assay (bodipy-GDP/GppNHp, SOS1). Format: biochemical. Particulars: bodipy-loaded KRAS G12C 2.5 nM, 2 hours pre-incubation with inhibitor, 2 hours exchange; read-out: G12C_exchange (KRAS_G12C exchange assay IC50). The method, then: (§1) The inhibitor potency of the exemplified compounds was determined in a fluorescence based guanine nucleotide exchange assay, which measures the exchange of bodipy-GDP (fluorescently labeled GDP) for GppNHp (Non-hydrolyzable GTP analog) to generate the active state of KRAS in the presence of SOS1 (guanine nucleotide exchange factor). Inhibitors were serially diluted in DMSO and a volume of 0.1 μL was transferred to the wells of a black low volume 384-well plate. 5 μL/well volume of bodipy-loaded KRAS G12C diluted to 5 nM in assay buffer (25 mM Hepes pH 7.5, 50 mM NaCl, 10 mM MgCl2 and 0.01% Brij-35) was added to the plate and pre-incubated with inhibitor for 2 hours at ambient temperature. Appropriate controls (enzyme with no inhibitor or with a G12C inhibitor (AMG-510)) were included on the plate. The exchange was initiated by the addition of a 5 μL/well volume containing 1 mM GppNHp and 300 nM SOS1 in assay buffer. The 10 μL/well reaction concentration of the bodipy-loaded KRAS G12C, GppNHp, and SOS1 were 2.5 nM, 500 uM, and 150 nM, respectively. The reaction plates were incubated at ambient temperature for 2 hours, a time estimated for complete GDP-GTP exchange in the absence of inhibitor. For the KRAS G12D and G12V mutants, similar guanine nucleotide exchange assays were used with 2.5 nM as final concentration for the bodipy loaded KRAS proteins and with 4 hours and 3 hours incubation after adding GppNHp-SOS1 mixture for G12D and G12V respectively. A cyclic peptide described to selectively bind G12D mutant (Sakamoto et al., BBRC 484.3 (2017), 605-611) or internal compounds with confirmed binding were used as positive controls in the assay plates. Fluorescence intensities were measured on a PheraStar plate reader instrument (BMG Labtech) with excitation at 485 nm and emission at 520 nm.
(§2) Either GraphPad prism or XLfit was used to analyze the data. The IC50 values were derived by fitting the data to a four parameter logistic equation producing a sigmoidal dose-response curve with a variable Hill coefficient. Prism equation: Y=Bottom+(Top−Bottom)/(1+10^((Log IC50−X)*Hill slope)); XLfit equation: Y=(A+((B−A)/(1+((X/C)^D)))) where X is the logarithm of inhibitor concentration and Y is the response.
For orientation: IC50 means the point on the concentration scale where inhibition reaches its midpoint. As to `C=CC(=O)N1CCCC2(C1)C(=O)Nc1c(OC[C@@H]3CCCN3C)nc3c(F)c(-c4cc(O)cc5ccccc45)c(Cl)cc3c12` (mixture of isomers) [Example 15, 1-Acryloyl-8′-chloro-6′-fluoro-7′-(3-hydroxynaphthalen-1-yl)-4′-(((S)-1-methylpyrrolidin-2-yl)methoxy)spiro[piperidine-3,1′-pyrrolo[2,3-c]quinolin]-2′(3′H)-one], the half-maximal inhibitory concentration (IC50) was 1 to 5 µM. Regarding `C=CC(=O)N1CCC2(C1)Nc1c(cnc3c(F)c(-c4c(C)ccc5[nH]ncc45)c(Cl)cc13)NC2=O` (racemic) [Example 9, 1′-Acryloyl-9-chloro-7-fluoro-8-(5-methyl-1H-indazol-4-yl)-1,4-dihydro-3H-spiro[pyrazino[2,3-c]quinoline-2,3′-pyrrolidin]-3-one], the IC50 lay within 1 to 5 µM.

For the next experiment, the system named is KRAS G12C (MIA PaCa-2 cells). Put plainly: KRAS_G12C cellular pERK HTRF assay. Format: cell-based, human. Set-up: G12C_pERK (KRAS_G12C pERK assay IC50): scale not given here. Particulars: Homo sapiens, MIA PaCa-2; cells incubated with compound 4 hours; read-out: G12C_pERK (KRAS_G12C pERK assay IC50). The method, then: MIA PaCa-2 (KRAS G12C; ATCC® CRL-1420), A427 (KRAS G12D; ATCC® HTB53), HPAF-II (KRAS G12D; ATCC® CRL-1997) and NCI-H838 (KRAS WT; ATCC® CRL-5844) cells are purchased from ATCC and maintained in RPMI 1640 media supplemented with 10% FBS (Gibco/Life Technologies). The cells are plated at 5000 cells per well (8 uL) into Greiner 384-well low volume, flat-bottom, tissue culture treated white plates and incubated overnight at 37° C., 5% CO2. The next morning, test compound stock solutions are diluted in media at 3x the final concentration, and 4 uL are added to the cells. The plate is mixed by gentle rotation for 30 seconds (250 rpm) at room temperature. The cells are incubated with the KRAS G12C and G12D compounds for 4 hours or 2 hours respectively at 37° C., 5% CO2.
4 uL of 4× lysis buffer with blocking reagent (1:25) (Cisbio) are added to each well and plates are rotated gently (300 rpm) for 30 minutes at room temperature. 4 uL per well of Cisbio anti Phospho-ERK 1/2 d2 is mixed with anti Phospho-ERK 1/2 Cryptate (1:1) are added to each well, mixed by rotation and incubated overnight in the dark at room temperature. Plates are read on the Pherastar plate reader at 665 nm and 620 nm wavelengths. IC50 determination is performed by fitting the curve of inhibitor percent inhibition versus the log of the inhibitor concentration using the GraphPad Prism 7 software.
(TR-FRET usually uses a lanthanide donor and a delayed reading to cut background.)
As for `C=CC(=O)N1CCC2(CC1)Nc1c(cnc3c(F)c(-c4c(O)cccc4F)c(Cl)cc13)NC2=O` [Example 1, 1-Acryloyl-9′-chloro-7′-fluoro-8′-(2-fluoro-6-hydroxyphenyl)-1′,4′-dihydro-3′H-spiro[piperidine-4,2′-pyrazino[2,3-c]quinolin]-3′-one], the IC50 fell in the range of 1 to 5 µM. As for `C=CC(=O)N1CCC2(CC1)Nc1c(cnc3c(F)c(-c4cc(O)ccc4Cl)c(Cl)cc13)NC2=O` [Example 2, 1-Acryloyl-9′-chloro-8′-(2-chloro-5-hydroxyphenyl)-7′-fluoro-1′,4′-dihydro-3′H-spiro[piperidine-4,2′-pyrazino[2,3-c]quinolin]-3′-one], the 50% inhibitory concentration (IC50) fell in the range of 1 to 5 µM. For the compound `C=CC(=O)N1CC2(C1)Nc1c(cnc3c(F)c(-c4c(O)cccc4F)c(Cl)cc13)NC2=O` [Example 6, 1-Acryloyl-9′-chloro-7′-fluoro-8′-(2-fluoro-6-hydroxyphenyl)-1′,4′-dihydro-3′H-spiro[azetidine-3,2′-pyrazino[2,3-c]quinolin]-3′-one], the half-maximal inhibitory concentration (IC50) was in the range of 1 to 5 µM. Turning to `C=CC(=O)N1CC2(C1)Nc1c(cnc3c(F)c(-c4c(C)ccc5[nH]ncc45)c(Cl)cc13)NC2=O` [Example 7, 1-Acryloyl-9′-chloro-7′-fluoro-8′-(5-methyl-1H-indazol-4-yl)-1′,4′-dihydro-3′H-spiro[azetidine-3,2′-pyrazino[2,3-c]quinolin]-3′-one], the IC50 was in the range of 1 to 5 µM.

For `C=CC(=O)N1CCC2(C1)Nc1c(cnc3c(F)c(-c4c(O)cccc4F)c(Cl)cc13)NC2=O` (centres unmarked) [Example 8, 1′-Acryloyl-9-chloro-7-fluoro-8-(2-fluoro-6-hydroxyphenyl)-1,4-dihydro-3H-spiro[pyrazino[2,3-c]quinoline-2,3′-pyrrolidin]-3-one], the IC50 was 1 to 5 µM.

Consider `C=CC(=O)N1CCC2(CC1)Nc1c(c(OCCN3CCCCC3)nc3c(F)c(-c4c(O)cccc4F)c(Cl)cc13)NC2=O` [Example 12, 1-Acryloyl-9′-chloro-7′-fluoro-8′-(2-fluoro-6-hydroxyphenyl)-5′-(2-(piperidin-1-yl)ethoxy)-1′,4′-dihydro-3′H-spiro[piperidine-4,2′-pyrazino[2,3-c]quinolin]-3′-one], for which the IC50 lay in the range of 1 to 5 µM. For `C=CC(=O)N1CC2(C1)Nc1c(c(OC[C@@H]3CCCN3C)nc3c(F)c(-c4c(O)cccc4F)c(Cl)cc13)NC2=O` [Example 18, 1-Acryloyl-9′-chloro-7′-fluoro-8′-(2-fluoro-6-hydroxyphenyl)-5′-(((S)-1-methylpyrrolidin-2-yl)methoxy)-1′,4′-dihydro-3′H-spiro[azetidine-3,2′-pyrazino[2,3-c]quinolin]-3′-one], the concentration for half-maximal inhibition (IC50) is 1 to 5 µM.

The same experiment, now with this note: cells incubated with compound 4 hours.
Regarding `C=CC(=O)N1CCC2(CC1)C(=O)N(C)c1c(OC[C@@H]3CCCN3C)nc3c(F)c(-c4cc(O)cc5ccccc45)c(Cl)cc3c12` (single isomer, unassigned) [Example 16a], the “G12C_pERK (KRAS_G12C pERK assay IC50)” value was “††”.

On to `C=CC(=O)N1CCC2(C1)C(=O)Nc1c(OC[C@@H]3CCCN3C)nc3c(F)c(-c4cc(O)cc5ccccc45)c(Cl)cc3c12` (stereo partly drawn) [Example 14, 1-Acryloyl-8′-chloro-6′-fluoro-7′-(3-hydroxynaphthalen-1-yl)-4′-(((S)-1-methylpyrrolidin-2-yl)methoxy)spiro[pyrrolidine-3,1′-pyrrolo[2,3-c]quinolin]-2′(3′H)-one], for which the “G12C_pERK (KRAS_G12C pERK assay IC50)” value is on record as “††”.

Another experiment deals with KRAS G12D (Homo sapiens, UniProt P01116, G12D). The experiment can be described thus: KRAS G12D GDP-GTP exchange assay (bodipy-GDP/GppNHp, SOS1). The following applies: bodipy loaded KRAS G12D 2.5 nM, 4 hours incubation after GppNHp-SOS1; read-out: G12D_exchange (KRAS_G12D exchange assay IC50). The format is biochemical. The method, then: as §1, §2
Sequence of KRAS G12D (P01116 1-188 isoform P01116-2 G12D): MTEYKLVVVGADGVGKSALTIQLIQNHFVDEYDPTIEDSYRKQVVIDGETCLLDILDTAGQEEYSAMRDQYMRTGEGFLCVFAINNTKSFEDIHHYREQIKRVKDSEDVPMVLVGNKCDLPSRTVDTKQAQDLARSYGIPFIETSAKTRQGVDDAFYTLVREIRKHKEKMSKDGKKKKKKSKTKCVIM
Turning to `CN(C)C1CN(c2nc3c(F)c(-c4cc(O)cc5ccccc45)c(CCCC#N)cc3c3c2NC(=O)C32CCNC2)C1` (single isomer, unassigned) [Example 30b, 4-(4′-(3-(dimethylamino)azetidin-1-yl)-6′-fluoro-7′-(3-hydroxynaphthalen-1-yl)-2′-oxo-2′,3′-dihydrospiro[pyrrolidine-3,1′-pyrrolo[2,3-c]quinolin]-8′-yl)butanenitrile], the 50% inhibitory concentration (IC50) was 1 to 5 µM. Turning to `CN(C)C1CN(c2nc3c(F)c(-c4cc(O)cc5ccccc45)c(CCCC#N)cc3c3c2NC(=O)C32CNCCO2)C1` (single isomer, unassigned) [Example 31b, 4-(4′-(3-(dimethylamino)azetidin-1-yl)-6′-fluoro-7′-(3-hydroxynaphthalen-1-yl)-2′-oxo-2′,3′-dihydrospiro[morpholine-2,1′-pyrrolo[2,3-c]quinolin]-8′-yl)butanenitrile], the half-inhibitory concentration (IC50) lay in the range of 5 to 50 µM.

On to `CN1CCC[C@H]1COc1nc2c(F)c(-c3cc(O)cc4ccccc34)c(CCCC#N)cc2c2c1NC(=O)C21CCCNC1` (single isomer, unassigned) [Example 32b], for which the 50% inhibitory concentration (IC50) is 1 to 5 µM.

`CN1C(=O)C2(CCCNC2)c2c1c(OC[C@@H]1CCCN1C)nc1c(F)c(-c3cc(O)cc4ccccc34)c(CCCC#N)cc21` (single isomer, unassigned) [Example 33b]: the concentration for half-maximal inhibition (IC50) was 1 to 5 µM. For `CN1CCC[C@H]1COc1nc2c(F)c(-c3cc(O)cc4ccccc34)c(CCCC#N)cc2c2c1N(CCO)C(=O)C21CCCNC1` (single isomer, unassigned) [Example 34b], the IC50 lay in the range of 1 to 5 µM.

For `CN1CCC[C@H]1COc1nc2c(F)c(-c3cc(O)cc4ccccc34)c(CCCC#N)cc2c2c1N(CC#N)C(=O)C21CCCNC1` (single isomer, unassigned) [Example 36a], the IC50 fell in the range of 1 to 5 µM.

For the compound `CN1CCC[C@H]1COc1nc2c(F)c(-c3cc(O)cc4ccccc34)c(CCCC#N)cc2c2c1N(CC(N)=O)C(=O)C21CCCNC1` (single isomer, unassigned) [Example 37b], the IC50 was in the range of 1 to 5 µM. `CN(C)C1CN(c2nc3c(F)c(-c4cc(O)cc5ccccc45)c(Cl)cc3c3c2NC(=O)C32CC(N)C2)C1` (centres unmarked) [Example 22, 3-amino-8′-chloro-4′-(3-(dimethylamino)azetidin-1-yl)-6′-fluoro-7′-(3-hydroxynaphthalen-1-yl)spiro[cyclobutane-1,1′-pyrrolo[2,3-c]quinolin]-2′(3′H)-one]: the half-maximal inhibitory concentration (IC50) was in the range of 5 to 50 µM. `CN(C)C1CN(c2nc3c(F)c(-c4cc(O)cc5ccccc45)c(CCC#N)cc3c3c2NC(=O)C32CNC2)C1` [Example 29, 3-(4′-(3-(dimethylamino)azetidin-1-yl)-6′-fluoro-7′-(3-hydroxynaphthalen-1-yl)-2′-oxo-2′,3′-dihydrospiro[azetidine-3,1′-pyrrolo[2,3-c]quinolin]-8′-yl)propanenitrile]: the IC50 was 1 to 5 µM.
